Each block holds one compound with its values, some of them ahead of it.
Assays:
[1] = Cascade impaction of diatrizoic acid dry powder and nebulized suspension; type: physicochemical; settings: flow rate ~30 L/min
Experimental: FDA requires characterization of aerosols using cascade impaction, which determines aerosol particle size; indicative of the probable deposition site in the lung. The nanoparticle agglomerate formulation described above was studied using a Tisch Ambient Cascade Impactor. The study was carried out by applying ˜20 mg powder manually into the orifice of the instrument at an air flow rate of […]. Alternatively, the dry powders were suspended in water and applied into the cascade impactor through a nebulizer equipped with an LC Star atomizer. […] Cut-off particle aerodynamic diameters at 30 L/min for each stage of the impactor were: pre-separator (10.00 μm), stage 0 (9.00 μm), stage 1 (5.8 μm), stage 2 (4.7 μm), stage 3 (3.3 μm), stage 4 (2.1 μm), stage 5 (1.1 μm), stage 6 (0.7 μm), stage 7 (0.4 μm) and filter (0 μm). Diatrizoic acid nanoparticle agglomerates deposited on each stage of the impactor were determined by measuring the difference in weight of filters placed on the stages. The percent emitted fraction (% EF) and fine particle fractions of the total dose (FPFTD) were then calculated. In addition, the mass median aerodynamic diameter, MMAD, and geometric standard deviation, GSD, were obtained by a linear fit of the cumulative percent less-than the particle size range by weight plotted on a probability scale as a function of the logarithm of the effective cut-off diameter.

[2] = Cascade impaction of paclitaxel nanoparticle agglomerates (Tisch Ambient Cascade Impactor); type: physicochemical
Experimental: Aerodynamic characteristics of selected nanoparticle agglomerates were studied in vitro using a Tisch Ambient Cascade Impactor (Tisch Environmental, Inc., Ohio). The study was carried out by applying ˜20 mg powder manually into the orifice of the instrument at an air flow rate of ˜30 L/min. Cut-off particle aerodynamic diameters for each stage of the impactor were: pre-separator ([…]), stage 0 ([…]), stage 1 (5.8 mm), stage 2 (4.7 mm), stage 3 (3.3 mm), stage 4 (2.1 mm), stage 5 (1.1 mm), stage 6 (0.7 mm), stage 7 (0.4 mm) and filter (0 mm). Nanoparticle agglomerates deposited on each stage of the impactor were determined by measuring the difference in weight of filters placed on the stages. The mass median aerodynamic diameter, MMAD, and geometric standard deviation, GSD, were obtained by a linear fit of the cumulative percent less-than the particle size range by weight plotted on a probability scale as a function of the logarithm of the effective cut-off diameter.

[3] = almost all organic solvent; cited from earlier work
A549 cells = assay: Cytotoxicity of budesonide formulations, CellTiter 96 MTS assay; type: cell-based; settings: up to 5 mg/mL, end of 12 hours
Experimental: In this experiment, 8×10^4 A549 cells/well were seeded in 96-well microtiter plates. At the end of the incubation period (12 h), […] of MTS reagent solution was added to each well and incubated for 3 hours at 37° C. The absorbance was measured at 490 nm using a microtiter plate reader (SpectraMax, M25, Molecular Devices Corp., CA). The percentage of viable cells with all tested concentrations was calculated relative to untreated cells.

[4] = Dispersion stability of budesonide in model propellant HPFP; type: physicochemical; settings: dispersed in HPFP
Experimental: A trial run for determining the feasibility of budesonide nanoclusters as Metered Dose Inhaler formulations was performed. Budesonide nanoclusters and pure budesonide (milled) were dispersed in model propellant HPFP (2H, 3H perfluoropentane) and their dispersion stability was analyzed. HPFP has similar physico-chemical properties to MDI propellants such as […]. Previous literature studies indicate that dispersion stability of therapeutic molecules is similar in both HPFP and HFA227ea.

Solubility = type: physicochemical
[5] = Dissolution of insulin particles in PBS (pH 7.4); type: physicochemical; settings: PBS pH 7.4, 37 °C, FIG. 38
Experimental: Approximately 6 mg of each insulin particle sample was suspended in PBS (pH 7.4). The solution was placed in a 100,000 Dalton biotech grade cellulose ester dialysis tube (Spectrum Labs, Rancho Dominiguez, Calif.) and placed in PBS solution to a final volume of 45 mL. All samples were incubated at 37° C. and shaken at 50 rpm on a shaker table. 1 mL aliquots were taken at various time points up to 8 hours from the bulk solution and replaced with 1 mL of fresh PBS. The insulin concentration was measured using a Coomassie Plus colorimetric protein quantification assay (Thermo Fisher Scientific, Waltham, Mass.). A calibration curve was used to correlate the insulin concentration with the measured absorbance, with insulin concentrations ranging between 1 and 25 μg/mL used as the standard. Dissolved mass was calculated from the measured concentration, and was then normalized to the total loaded mass to determine the percent dissolved. All experiments were performed in triplicate. Analysis of variance (ANOVA) was used to determine statistically significant differences between groups (p<0.05). Comparisons among groups were done using a Fisher's F-test.

[6] = Aerodynamic diameter by time-of-flight measurement (Aerosizer LD); type: physicochemical; settings: insulin powders
Experimental: The aerodynamic size distributions of the agglomerate powders were measured directly from lyophilized powder by time-of-flight measurement using an Aerosizer LD (Amherst Instruments) equipped with a […] aperture operating at 6 psi.
The particle size of the dispersed nanoparticle agglomerates as well as the resuspended lyophilized powder was measured using a Coulter Multisizer 3. The aerodynamic size distributions of the agglomerate powders were measured directly from lyophilized powder by time-of-flight measurement using an Aerosizer LD (Amherst Instruments) equipped with a 700 μm aperture operating at 6 psi.
The aerodynamic diameters of the lyophilized powders were determined using an Aerosizer LD (Amherst Process Instruments Inc.). Data were collected over ˜70 seconds under high shear force (˜3.4 kPa) using a 700 μm nozzle.
The particle size was determined from the lyophilized powder using particle time-of-flight analysis. The particle mass mean aerodynamic diameter indentified using this analytical method was 1.0±0.1 μm, which is an ideal particle size for accessing the lung periphery.
Aerodynamic size distribution of the lyophilized powder was obtained by analyzing the time of flight measurements from an Aerosizer LD (Amherst Instruments) equipped with a 700 μm and operating 4 psi. […]

- % EF (percent emitted fraction) [1]: 75 ± 5%
- % FPF (fine particle fraction) <3.3 [1]: 10 ± 7%
- % FPF (fine particle fraction) <5.7 [1]: 33 ± 6%
- GSD (geometric standard deviation) [1]: 2 ± 0.1
- MMAD (mass median aerodynamic diameter obtained from cascade impactor) [1]: 7 ± 1
Compound: CC(=O)Nc1c(I)c(NC(C)=O)c(I)c(C(=O)O)c1I [Diatrizoic acid (suspen.), Diatrizoic acid]

- GSD (geometric standard deviation) ([2]; cascade impactor, ~30 L/min): 2.2 ± 0.03
- MMAD (mass median aerodynamic diameter) ([2]; cascade impactor, ~30 L/min): 0.08 ± 0.02
- % RF (percent respirable fraction) <3.3 ([2]; flow rate ~30 L/min): 0%
- % RF (percent respirable fraction) <5.7 ([2]; flow rate ~30 L/min): 0.39 ± 0.3%
- % EF (percent emitted fraction) ([2]; lyophilized NA, flow rate ~30 L/min): 68.3 ± 6.1%
Compound: CC(=O)O[C@H]1C(=O)[C@@]2(C)[C@H]([C@H](OC(=O)c3ccccc3)[C@]3(O)C[C@H](OC(=O)[C@H](O)[C@@H](NC(=O)c4ccccc4)c4ccccc4)C(C)=C1C3(C)C)[C@]1(OC(C)=O)CO[C@@H]1C[C@@H]2O [Pure paclitaxel powder, Paclitaxel]

- dispersion stability (creaming) [4]: clearly visible layer was seen at 1 hr
- dispersion stability (creaming) ([4]; listed as jet milled budesonide): complete creaming
Compound: CCCC1O[C@@H]2C[C@H]3[C@@H]4CCC5=CC(=O)C=C[C@]5(C)[C@H]4[C@@H](O)C[C@]3(C)[C@]2(C(=O)CO)O1 (some centres unmarked) [milled budesonide, Budesonide]

- solubility in acetone and ethanol (Solubility): poorly soluble
- solubility in water (Solubility): freely water soluble
Compound: [H]/N=C(/N)N[C@H]1[C@H](O)[C@@H](O)[C@H](O[C@@H]2O[C@@H](C)[C@](O)(C=O)[C@H]2O[C@@H]2O[C@@H](CO)[C@H](O)[C@@H](O)[C@@H]2NC)[C@@H](N/C(N)=N\[H])[C@@H]1O [streptomycin, Streptomycin]

Continued, compound first:

Compound: CC(=O)Nc1c(I)c(NC(C)=O)c(I)c(C(=O)O)c1I [Diatrizoic acid (powder), Diatrizoic acid]
- % EF (percent emitted fraction) [1]: 70 ± 1%
- % FPF (fine particle fraction) <3.3 [1]: 4 ± 2^ %
- % FPF (fine particle fraction) <5.7 [1]: 21 ± 2%
- GSD (geometric standard deviation) [1]: 2 ± 0.1
- MMAD (mass median aerodynamic diameter obtained from cascade impactor) [1]: 9 ± 0.1

Compound: CO[C@H]1/C=C/O[C@@]2(C)Oc3c(C)c(O)c4c(O)c(c(/C=N/N5CCN(C)CC5)c(O)c4c3C2=O)NC(=O)/C(C)=C\C=C\[C@H](C)[C@H](O)[C@@H](C)[C@@H](O)[C@@H](C)[C@H](OC(C)=O)[C@@H]1C [Rifampicin]
- solubility in organic solvent [3]: freely soluble

Compound: CCCC1O[C@@H]2C[C@H]3[C@@H]4CCC5=CC(=O)C=C[C@]5(C)[C@H]4[C@@H](O)C[C@]3(C)[C@]2(C(=O)CO)O1 (some centres unmarked) [Stock budesonide, Budesonide]
- cytotoxicity (A549 cells): did not show any significant cytotoxicity

Compound: Unprocessed: Lyophilized insulin powder from bovine pancreas (0.5% zinc content)
- insulin dissolution behaviour [5]: follows Higuchi dissolution kinetics
- daero [6]: 4.117 ± 1.852 μm

Reference: patent US9278069B2, “Nanoclusters compositions and methods” (UNIVERSITY OF KANSAS, priority 2005, dated 2016)
